The source of these data is patent publication US11229623B2 (GlaxoSmithKline Intellectual Property (No.2) Limited, priority 2016, dated 2022).

In the experiment the target is T1, human TRPV4 (Homo sapiens, UniProt Q9HBA0).
T1 construct: expressed in transfected cells; host or cells: BHK/AC9 cells transduced with BacMam virus
T1 sequence (Q9HBA0 whole entry): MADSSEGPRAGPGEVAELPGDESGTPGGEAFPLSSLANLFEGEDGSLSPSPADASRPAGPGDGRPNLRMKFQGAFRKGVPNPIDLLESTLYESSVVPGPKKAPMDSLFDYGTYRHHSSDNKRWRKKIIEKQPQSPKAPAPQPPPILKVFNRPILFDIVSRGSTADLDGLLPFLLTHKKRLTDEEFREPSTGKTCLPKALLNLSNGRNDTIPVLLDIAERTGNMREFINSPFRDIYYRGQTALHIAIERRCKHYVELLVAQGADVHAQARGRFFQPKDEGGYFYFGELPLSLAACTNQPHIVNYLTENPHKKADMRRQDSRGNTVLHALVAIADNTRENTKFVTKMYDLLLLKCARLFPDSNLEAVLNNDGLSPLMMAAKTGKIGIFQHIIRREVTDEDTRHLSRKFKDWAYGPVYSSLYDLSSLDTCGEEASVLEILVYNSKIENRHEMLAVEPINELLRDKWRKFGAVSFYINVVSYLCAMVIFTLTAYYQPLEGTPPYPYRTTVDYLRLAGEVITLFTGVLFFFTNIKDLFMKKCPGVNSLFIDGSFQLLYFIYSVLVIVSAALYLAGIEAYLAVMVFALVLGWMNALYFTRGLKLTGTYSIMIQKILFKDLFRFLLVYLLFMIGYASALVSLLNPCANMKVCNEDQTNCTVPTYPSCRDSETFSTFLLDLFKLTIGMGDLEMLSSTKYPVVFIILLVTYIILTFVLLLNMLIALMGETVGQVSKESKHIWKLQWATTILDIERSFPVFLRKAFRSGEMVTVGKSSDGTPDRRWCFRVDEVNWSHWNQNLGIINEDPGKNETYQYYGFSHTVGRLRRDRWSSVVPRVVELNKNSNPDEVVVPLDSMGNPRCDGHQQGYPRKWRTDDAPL
Put plainly: FLIPR assay for hTRPV4 expressed in BHK cells: inhibition of Agonist Compound-induced calcium signal. It counts as cell-based. The following applies: hTRPV4 in BHK/AC9 cells, FLIPR calcium signal, agonist at EC80; reported as range class; read-out: IC50. The method, then: FLIPR Assay for hTRPV4 Expressed in BHK Cells:
TRPV4 channel activation results in an influx of divalent and monovalent cations including calcium. The resulting changes in intracellular calcium were monitored using a calcium specific fluorescent dye Fluo-4 (MDS Analytical Technologies). BHK/AC9 cells transduced with BacMam virus expressing the human TRPV4 gene at a MOI of 78 were plated in a 384 well poly-D lysine coated plate (15,000 cells/well in 50 μL culture medium containing DMEM/F12 with 15 mM HEPES, 10% FBS, 1% Penicillin-Streptomycin and 1% L-glutamine). Cells were incubated for 24 hours at 37° C. and 5% CO2. Culture medium was then aspirated using a Tecan plate-washer and replaced with 20 μL/well of dye loading buffer: HBSS, 500 μM Brilliant Black (MDS Analytical Technologies), and 2 μM Fluo-4 AM. Dye loaded plates were then incubated in the dark at room temperature for 1-1.5 hours.
`N#Cc1cc(C(F)(F)F)ccc1S(=O)(=O)N1C[C@H](Oc2ccc(Cl)c(Cl)c2)[C@](O)(CO)C1` [Example 39, 2-(((3R,4S)-4-(3,4-dichlorophenoxy)-3-hydroxy-3-(hydroxymethyl)pyrrolidin-1-yl)sulfonyl)-5-(trifluoromethyl)benzonitrile]: the IC50 is 10 to 100 nM.

As to `N#Cc1cc(C(F)(F)F)ccc1S(=O)(=O)N1C[C@H](Oc2ccc(OC(F)(F)F)c(F)c2)[C@](O)(CO)C1` [Example 40, 2-(((3R,4S)-4-(3-fluoro-4-(trifluoromethoxy)phenoxy)-3-hydroxy-3-(hydroxymethyl)pyrrolidin-1-yl)sulfonyl)-5-(trifluoromethyl)benzonitrile], the 50% inhibitory concentration (IC50) was 0.1 to 10 nM.

Regarding `N#Cc1cc(C(F)(F)F)ccc1S(=O)(=O)N1C[C@H](Oc2ccc(F)c(Cl)c2)[C@](O)(CO)C1` [Example 41, 2-(((3R,4S)-4-(3-chloro-4-fluorophenoxy)-3-hydroxy-3-(hydroxymethyl)pyrrolidin-1-yl)sulfonyl)-5-(trifluoromethyl)benzonitrile], the IC50 was in the range of 10 to 100 nM.

With `N#Cc1cc(C(F)(F)F)ccc1S(=O)(=O)N1C[C@H](Oc2ccc(C(F)(F)F)nc2)[C@](O)(CO)C1` [Example 42, 2-(((3R,4S)-3-hydroxy-3-(hydroxymethyl)-4-((6-(trifluoromethyl)pyridin-3-yl)oxy)pyrrolidin-1-yl)sulfonyl)-5-(trifluoromethyl)benzonitrile], the half-inhibitory concentration (IC50) was in the range of 10 to 100 nM.

For `COc1ccc(O[C@H]2CN(S(=O)(=O)c3ccc(C(F)(F)F)cc3C#N)C[C@@]2(O)CO)cc1F` [Example 43, 2-(((3R,4S)-4-(3-fluoro-4-methoxyphenoxy)-3-hydroxy-3-(hydroxymethyl)pyrrolidin-1-yl)sulfonyl)-5-(trifluoromethyl)benzonitrile], the concentration for half-maximal inhibition (IC50) was in the range of 10 to 100 nM.

For the compound `CC(C)Oc1cc(C#N)ccc1O[C@H]1CN(S(=O)(=O)c2ccc(C(F)(F)F)cc2C#N)C[C@@]1(O)CO` [Example 44, 2-(((3R,4S)-4-(4-cyano-2-isopropoxy-phenoxy)-3-hydroxy-3-(hydroxymethyl)pyrrolidin-1-yl)sulfonyl)-5-(trifluoromethyl)benzonitrile], the IC50 is 0.1 to 10 nM.

For `N#Cc1ccc(O[C@H]2CN(S(=O)(=O)c3ccc(C(F)(F)F)cc3C#N)C[C@@]2(O)CO)c(OC2CC2)c1` [Example 45, 2-(((3R,4S)-4-(4-cyano-2-cyclopropoxyphenoxy)-3-hydroxy-3-(hydroxymethyl)pyrrolidin-1-yl)sulfonyl)-5-(trifluoromethyl)benzonitrile], the IC50 lay in the range of 0.1 to 10 nM.

For the compound `N#Cc1cc(C(F)(F)F)ccc1S(=O)(=O)N1C[C@H](Oc2ccccc2)[C@](O)(CO)C1` [Example 46, 2-(((3R,4S)-3-hydroxy-3-(hydroxymethyl)-4-phenoxypyrrolidin-1-yl)sulfonyl)-5-(trifluoromethyl)benzonitrile], the IC50 lay in the range of 10 to 100 nM.

Turning to `N#Cc1cc(C(F)(F)F)ccc1S(=O)(=O)N1C[C@H](Oc2ccc(F)cc2)[C@](O)(CO)C1` [Example 47, 2-(((3R,4S)-4-(4-fluorophenoxy)-3-hydroxy-3-(hydroxymethyl)pyrrolidin-1-yl)sulfonyl)-5-(trifluoromethyl)benzonitrile], the half-inhibitory concentration (IC50) fell in the range of 10 to 100 nM.

For the compound `COc1cc(Cl)ccc1O[C@H]1CN(S(=O)(=O)c2ccc(C(F)(F)F)cc2C#N)C[C@@]1(O)CO` [Example 48, 2-(((3R,4S)-4-(4-chloro-2-methoxyphenoxy)-3-hydroxy-3-(hydroxymethyl)pyrrolidin-1-yl)sulfonyl)-5-(trifluoromethyl)benzonitrile], the IC50 fell in the range of 10 to 100 nM.

Consider `N#Cc1ccc(O[C@H]2CN(S(=O)(=O)c3ccc(C(F)(F)F)cc3Cl)C[C@@]2(O)CO)cc1` [Example 49, 4-(((3S,4R)-1-((2-chloro-4-(trifluoromethyl)phenyl)sulfonyl)-4-hydroxy-4-(hydroxymethyl)pyrrolidin-3-yl)oxy)benzonitrile], for which the IC50 was 10 to 100 nM.

For `N#Cc1cc(C(F)(F)F)ccc1S(=O)(=O)N1C[C@H](Oc2ccc(OC(F)(F)F)cc2)[C@](O)(CO)C1` [Example 50, 2-(((3R,4S)-3-hydroxy-3-(hydroxymethyl)-4-(4-(trifluoromethoxy)phenoxy)pyrrolidin-1-yl)sulfonyl)-5-(trifluoromethyl)benzonitrile], the IC50 lay within 0.1 to 10 nM.

As for `Cc1ccc(O[C@H]2CN(S(=O)(=O)c3ccc(C(F)(F)F)cc3C#N)C[C@@]2(O)CO)cc1` [Example 51, 2-(((3R,4S)-3-hydroxy-3-(hydroxymethyl)-4-(p-tolyloxy)pyrrolidin-1-yl)sulfonyl)-5-(trifluoromethyl)benzonitrile], the IC50 lay in the range of 10 to 100 nM.

Take `COc1ccc(O[C@H]2CN(S(=O)(=O)c3ccc(C(F)(F)F)cc3C#N)C[C@@]2(O)CO)cc1` [Example 52, 2-(((3R,4S)-3-hydroxy-3-(hydroxymethyl)-4-(4-methoxyphenoxy)pyrrolidin-1-yl)sulfonyl)-5-(trifluoromethyl)benzonitrile]: the IC50 was 10 to 100 nM.

Take `N#Cc1cccc(O[C@H]2CN(S(=O)(=O)c3ccc(C(F)(F)F)cc3C#N)C[C@@]2(O)CO)c1` [Example 53, 2-(((3R,4S)-4-(3-cyanophenoxy)-3-hydroxy-3-(hydroxymethyl)pyrrolidin-1-yl)sulfonyl)-5-(trifluoromethyl)benzonitrile]: the IC50 is 10 to 100 nM.

As to `COc1ccc(C#N)cc1O[C@H]1CN(S(=O)(=O)c2ccc(C(F)(F)F)cc2C#N)C[C@@]1(O)CO` [Example 54, 2-(((3R,4S)-4-(5-cyano-2-methoxyphenoxy)-3-hydroxy-3-(hydroxymethyl)pyrrolidin-1-yl)sulfonyl)-5-(trifluoromethyl)benzonitrile], the IC50 is 10 to 100 nM.

`N#Cc1cc(C(F)(F)F)ccc1S(=O)(=O)N1C[C@H](Oc2cnc(C(F)(F)F)nc2)[C@](O)(CO)C1` [Example 55, 2-(((3R,4S)-3-hydroxy-3-(hydroxymethyl)-4-((2-(trifluoromethyl)pyrimidin-5-yl)oxy)pyrrolidin-1-yl)sulfonyl)-5-(trifluoromethyl)benzonitrile]: the concentration for half-maximal inhibition (IC50) lay in the range of 10 to 100 nM.

On to `N#Cc1ccccc1S(=O)(=O)N1C[C@H](Oc2ccc(C(F)(F)F)cc2)[C@](O)(CO)C1` [Example 56, 2-(((3R,4S)-3-hydroxy-3-(hydroxymethyl)-4-(4-(trifluoromethyl)phenoxy)pyrrolidin-1-yl)sulfonyl)benzonitrile], for which the 50% inhibitory concentration (IC50) lay within 10 to 100 nM.

Regarding `N#Cc1ccc(O[C@H]2CN(S(=O)(=O)c3ccc(Cl)cn3)C[C@@]2(O)CO)c2ccccc12` [Example 57, 4-(((3S,4R)-1-((5-chloropyridin-2-yl)sulfonyl)-4-hydroxy-4-(hydroxymethyl)pyrrolidin-3-yl)oxy)-1-naphthonitrile], the half-inhibitory concentration (IC50) was 10 to 100 nM.

For the compound `N#Cc1ccc(O[C@H]2CN(S(=O)(=O)c3ccc(Cl)cn3)C[C@@]2(O)CO)cc1F` [Example 58, 4-(((3S,4R)-1-((5-chloropyridin-2-yl)sulfonyl)-4-hydroxy-4-(hydroxymethyl)pyrrolidin-3-yl)oxy)-2-fluorobenzonitrile], the IC50 lay in the range of 10 to 100 nM.

In the case of `N#Cc1ccc(O[C@H]2CN(S(=O)(=O)c3ccc(Cl)c4nonc34)C[C@@]2(O)CO)cc1F` [Example 59, 4-(((3S,4R)-1-((7-chlorobenzo[c][1,2,5]oxadiazol-4-yl)sulfonyl)-4-hydroxy-4-(hydroxymethyl)pyrrolidin-3-yl)oxy)-2-fluorobenzonitrile], the IC50 was 10 to 100 nM.

As to `N#Cc1ccc(O[C@H]2CN(S(=O)(=O)c3ccccc3C#N)C[C@@]2(O)CO)cc1F` [Example 61, 4-(((3S,4R)-1-((2-cyanophenyl)sulfonyl)-4-hydroxy-4-(hydroxymethyl)pyrrolidin-3-yl)oxy)-2-fluorobenzonitrile], the IC50 was 0.1 to 10 nM.

Consider `N#Cc1ccc(O[C@H]2CN(S(=O)(=O)c3cccnc3C#N)C[C@@]2(O)CO)cc1F` [Example 62, 3-(((3R,4S)-4-(4-cyano-3-fluorophenoxy)-3-hydroxy-3-(hydroxymethyl)pyrrolidin-1-yl)sulfonyl)picolinonitrile], for which the IC50 lay within 0.1 to 10 nM.

`N#Cc1ccc(O[C@H]2CN(S(=O)(=O)c3ccc(C(F)(F)F)cc3Cl)C[C@@]2(O)CO)cc1F` [Example 63, 4-(((3S,4R)-1-((2-chloro-4-(trifluoromethyl)phenyl)sulfonyl)-4-hydroxy-4-(hydroxymethyl)pyrrolidin-3-yl)oxy)-2-fluorobenzonitrile]: the IC50 was in the range of 0.1 to 10 nM.

Turning to `COc1ccc(S(=O)(=O)N2C[C@H](Oc3ccc(C#N)c(F)c3)[C@](O)(CO)C2)c(Br)c1` [Example 64, 4-(((3S,4R)-1-((2-bromo-4-methoxyphenyl)sulfonyl)-4-hydroxy-4-(hydroxymethyl)pyrrolidin-3-yl)oxy)-2-fluorobenzonitrile], the IC50 was 10 to 100 nM.

Consider `N#Cc1ccc(O[C@H]2CN(S(=O)(=O)c3ccc(OC(F)(F)F)cc3Br)C[C@@]2(O)CO)cc1F` [Example 65, 4-(((3S,4R)-1-((2-bromo-4-(trifluoromethoxy)phenyl)sulfonyl)-4-hydroxy-4-(hydroxymethyl)pyrrolidin-3-yl)oxy)-2-fluorobenzonitrile], for which the 50% inhibitory concentration (IC50) was in the range of 0.1 to 10 nM.

In the case of `N#Cc1ccc(O[C@H]2CN(S(=O)(=O)c3ccc(OC(F)(F)F)cc3Cl)C[C@@]2(O)CO)cc1F` [Example 66, 4-(((3S,4R)-1-((2-chloro-4-(trifluoromethoxy)phenyl)sulfonyl)-4-hydroxy-4-(hydroxymethyl)pyrrolidin-3-yl)oxy)-2-fluorobenzonitrile], the IC50 was 10 to 100 nM.
